Laboratory results: patent US20260070889A1, “5-PYRIDINE-1H-INDAZOLE COMPOUND, PHARMACEUTICAL COMPOSITION, AND USE” (CHINA PHARMACEUTICAL UNIVERSITY, priority 2022, published 2026)
Read-outs that look alike come from different tables or passages of the source.

Experiments:
[1] = biological target: CLK1 (Homo sapiens, UniProt P49759); assay: In vitro kinase inhibition, ADP-Glo enzyme activity assay; type: biochemical; conditions: read-out: Enzymatic activity (IC50) CLK1
Procedure: (§1) (1) The positive drug was diluted in a 4-fold gradient with DMSO in a dilution plate, with the final initial concentrations of the compound being 1 & 0.02 & 0.1 μM.
(§2) (2) The compound was diluted 50-fold into the 1× kinase reaction buffer and oscillated on an oscillator for 20 min.
(§3) (3) The 2× kinase was prepared using the 1× enzyme reaction buffer.
(§4) (4) 2 μL of the kinase was added per well to the reaction plate.
(§5) (5) 1 μL of the compound diluted in the buffer was added to each well. The plate was sealed with a plate-sealing film, centrifuged at 1000 rpm for 60 s, and incubated at 25° C. for 10 min.
(§6) (6) 4× ATP & sub mixture was prepared using the 1× enzyme reaction buffer, and 1 μL of the 4× ATP & sub mixture was added to the reaction plate.
(§7) (7) The plate was sealed with a plate-sealing film, centrifuged at 1000 rpm for 60 s, and incubated at 25° C. for 60 min.
(§8) (8) 4 μL of ADP-Glo was transferred to the 384 reaction plate, and the plate was centrifuged at 1000 rpm for 1 min and incubated at 25° C. for 40 min.
(§9) (9) 8 μL of Detection solution was transferred to the 384 reaction plate, and the plate was centrifuged at 1000 rpm for 1 min and incubated at 25° C. for 40 min.
(§10) (10) The RLU (relative luminescence unit) signal was read using a BMG multifunctional microplate reader, and the signal intensity was used to characterize the degree of the kinase activity.
(§11) • (1) the ratio of each well was calculated; • (2) the inhibition rate was calculated as follows:
(§12) compound inhibition rate (% inh)=100%−(compound−positive control)/(negative control−positive control)×100% • (3) the IC50 was calculated, and the inhibition curves of the compounds were plotted: • the following nonlinear fitting formula was used to obtain the IC50 (half maximal inhibitory concentration) of the compounds: Graphpad 7.0 software was used for data analysis.
(§13) [formula] • X: log value of the concentration of the compound, Y: inhibition rate (% inhibition).

[2] = biological target: CLK2 (Homo sapiens, UniProt P49760); assay: as above; type: biochemical
Procedure: as §1, §2, §3, §4, §5, §6, §7, §8, §9, §10, §11, §12, §13

[3] = biological target: CLK3 (Homo sapiens, UniProt P49761); assay: as above; type: biochemical
Procedure: as §1, §2, §3, §4, §5, §6, §7, §8, §9, §10, §11, §12, §13

[4] = biological target: CLK4 (Homo sapiens, UniProt Q9HAZ1); assay: as above; type: biochemical; conditions: read-out: Enzymatic activity (IC50) CLK4
Procedure: as §1, §2, §3, §4, §5, §6, §7, §8, §9, §10, §11, §12, §13

[5] = biological target: DYRK1A (Homo sapiens, UniProt Q13627); assay: as above; type: biochemical
Procedure: as §1, §2, §3, §4, §5, §6, §7, §8, §9, §10, §11, §12, §13

[6] = system: ACLT model rats; assay: In vivo pharmacodynamics in osteoarthritis rats, RT-qPCR of cartilage; parameters: species or system rat; conditions: for expression of ADAMTS5 in cartilage (RT-qPCR) / expression of IHH in cartilage (RT-qPCR) / expression of MMP3 in cartilage (RT-qPCR) / expression of MMP13 in cartilage (RT-qPCR): week 5, versus model group
Procedure: 1. 40 rats were evenly divided into 4 groups, namely, Control (normal rats injected with physiological saline into the joint cavity), Model (ACLT Model rats injected with physiological saline into the joint cavity), low-dose administration group (ACLT Model rats injected with LH020 (1.5 μg/kg) into the joint cavity), and high-dose administration group (ACLT Model rats injected with LH020 (6 μg/kg) into the joint cavity).
2. Knee osteoarthritis was induced by resection of anterior cruciate ligament of the rats (ACLT model).
3. The first week after surgery, physiological saline or LH-020 (1.5 μg/kg. 6 μg/kg) was injected into the joint cavity.
4. Week 5 after administration, cartilage was collected, and the expression of cartilage-associated proteases (MMP3, MMP13, ADAMTS5, IHH, etc.) was detected by RT-qPCR.

[7] = related art statement; cited from earlier work
[8] = read-out: Enzymatic activity (IC50) CLK2
[9] = read-out: Enzymatic activity (IC50) CLK3
[10] = read-out: Enzymatic activity (IC50) DYRK1A
[11] = high-dose group 6 μg/kg into the joint cavity, effect superior to low-dose group
[12] = low-dose group 1.5 μg/kg into the joint cavity

Sequence of CLK1 (P49759 whole entry): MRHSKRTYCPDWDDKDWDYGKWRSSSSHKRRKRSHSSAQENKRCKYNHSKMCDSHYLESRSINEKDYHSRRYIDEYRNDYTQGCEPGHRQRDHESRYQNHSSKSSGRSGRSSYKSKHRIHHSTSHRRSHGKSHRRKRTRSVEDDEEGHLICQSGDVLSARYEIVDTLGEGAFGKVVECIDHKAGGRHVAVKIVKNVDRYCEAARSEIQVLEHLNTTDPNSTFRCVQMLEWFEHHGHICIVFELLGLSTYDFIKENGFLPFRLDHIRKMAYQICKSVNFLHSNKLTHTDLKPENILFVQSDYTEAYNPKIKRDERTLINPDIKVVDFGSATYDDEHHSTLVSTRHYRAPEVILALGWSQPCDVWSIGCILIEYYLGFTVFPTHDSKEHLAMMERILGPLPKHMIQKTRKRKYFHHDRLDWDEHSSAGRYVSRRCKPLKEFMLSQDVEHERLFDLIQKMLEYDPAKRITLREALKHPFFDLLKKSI
Sequence of CLK3 (P49761 whole entry): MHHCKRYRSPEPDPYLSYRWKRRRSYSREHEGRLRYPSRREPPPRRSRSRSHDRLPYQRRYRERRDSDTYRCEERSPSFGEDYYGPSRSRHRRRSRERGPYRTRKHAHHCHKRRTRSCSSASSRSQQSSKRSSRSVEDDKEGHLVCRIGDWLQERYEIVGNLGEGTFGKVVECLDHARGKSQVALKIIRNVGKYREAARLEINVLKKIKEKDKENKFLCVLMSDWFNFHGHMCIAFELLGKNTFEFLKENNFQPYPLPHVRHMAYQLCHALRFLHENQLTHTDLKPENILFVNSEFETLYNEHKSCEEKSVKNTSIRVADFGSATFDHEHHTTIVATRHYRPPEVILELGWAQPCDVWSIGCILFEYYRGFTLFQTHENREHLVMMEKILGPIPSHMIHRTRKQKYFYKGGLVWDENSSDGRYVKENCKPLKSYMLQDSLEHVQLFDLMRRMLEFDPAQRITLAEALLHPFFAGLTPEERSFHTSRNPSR
Sequence of CLK2 (P49760 whole entry): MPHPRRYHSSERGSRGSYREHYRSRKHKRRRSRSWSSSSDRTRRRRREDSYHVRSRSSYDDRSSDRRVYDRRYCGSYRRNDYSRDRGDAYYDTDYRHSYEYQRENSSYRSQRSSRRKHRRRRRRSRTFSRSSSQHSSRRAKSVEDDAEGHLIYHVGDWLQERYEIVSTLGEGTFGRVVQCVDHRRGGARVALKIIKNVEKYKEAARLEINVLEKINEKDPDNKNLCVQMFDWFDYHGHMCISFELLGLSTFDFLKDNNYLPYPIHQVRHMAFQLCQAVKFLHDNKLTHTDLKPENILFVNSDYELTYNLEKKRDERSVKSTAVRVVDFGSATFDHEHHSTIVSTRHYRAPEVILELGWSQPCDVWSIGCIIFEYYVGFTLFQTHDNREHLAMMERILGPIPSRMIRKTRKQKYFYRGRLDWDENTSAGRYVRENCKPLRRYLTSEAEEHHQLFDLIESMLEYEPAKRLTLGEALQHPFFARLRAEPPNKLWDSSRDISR
Sequence of CLK4 (Q9HAZ1 whole entry): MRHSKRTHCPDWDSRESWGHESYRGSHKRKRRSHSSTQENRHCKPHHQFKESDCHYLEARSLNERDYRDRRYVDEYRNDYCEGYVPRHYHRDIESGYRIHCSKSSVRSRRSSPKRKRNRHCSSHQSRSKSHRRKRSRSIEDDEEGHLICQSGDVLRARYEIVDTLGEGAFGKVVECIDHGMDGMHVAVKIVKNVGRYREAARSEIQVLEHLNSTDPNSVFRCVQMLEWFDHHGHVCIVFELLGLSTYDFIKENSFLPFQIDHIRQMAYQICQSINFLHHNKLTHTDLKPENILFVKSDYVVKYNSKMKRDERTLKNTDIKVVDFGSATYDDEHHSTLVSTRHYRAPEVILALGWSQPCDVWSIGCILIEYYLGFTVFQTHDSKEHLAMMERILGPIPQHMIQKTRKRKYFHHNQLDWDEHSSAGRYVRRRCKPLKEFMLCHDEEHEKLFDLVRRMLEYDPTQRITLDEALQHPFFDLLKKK

Structure (SMILES) | IC50 [1] [nM] | IC50 [2, 8] [nM] | IC50 [3, 9] [nM] | IC50 [4] [nM] | IC50 [5, 10] [nM] | other results
CC(C)CC(=O)Nc1cncc(-c2ccc3[nH]nc(-c4nc(=O)c5ccccc5[nH]4)c3c2)c1 [LH-001] | < 10 | < 10 | < 10 | 50 to 100 | 10 to 50 | 
O=C(CC1CC1)Nc1cncc(-c2ccc3[nH]nc(-c4nc(=O)c5ccccc5[nH]4)c3c2)c1 [LH-003] | < 10 | < 10 | < 10 | > 100 | 50 to 100 | 
O=C(Nc1cncc(-c2ccc3[nH]nc(-c4nc(=O)c5ccccc5[nH]4)c3c2)c1)C1CCCC1 [LH-004] | < 10 | 10 to 50 | 10 to 50 | 50 to 100 | 10 to 50 | 
O=C(CC1CCCCC1)Nc1cncc(-c2ccc3[nH]nc(-c4nc(=O)c5ccccc5[nH]4)c3c2)c1 [LH-005] | 50 to 100 | 10 to 50 | 50 to 100 | 10 to 50 | 10 to 50 | 
O=c1nc(-c2n[nH]c3ccc(-c4cncc(NCC5CCCCC5)c4)cc23)[nH]c2ccccc12 [LH-006] | 10 to 50 | 10 to 50 | 50 to 100 | 10 to 50 | 10 to 50 | 
O=c1nc(-c2n[nH]c3ccc(-c4cncc(CN5CCC(F)(F)C5)c4)cc23)[nH]c2ccccc12 [LH-009] | < 10 | < 10 | < 10 | 10 to 50 | < 10 | 
O=c1nc(-c2n[nH]c3ccc(-c4cccnc4)cc23)[nH]c2ccccc12 [LH-010] | 10 to 50 | < 10 | 10 to 50 | > 100 | 10 to 50 | 
CN(C)Cc1cncc(-c2ccc3[nH]nc(-c4nc(=O)c5ccccc5[nH]4)c3c2)c1 [LH-011] | 50 to 100 | < 10 | 50 to 100 | > 100 | 50 to 100 | 
CC(C)(C)C(=O)Nc1cncc(-c2ccc3[nH]nc(-c4nc(=O)c5ccccc5[nH]4)c3c2)c1 [LH-015] | 10 to 50 | < 10 | 10 to 50 | < 10 | < 10 | 
O=C(Nc1cncc(-c2ccc3[nH]nc(-c4nc(=O)c5ccccc5[nH]4)c3c2)c1)C1CC(F)(F)C1 [LH-016] | < 10 | < 10 | 10 to 50 | 10 to 50 | 10 to 50 | 
CCS(=O)(=O)Nc1cncc(-c2ccc3[nH]nc(-c4nc(=O)c5ccccc5[nH]4)c3c2)c1 [LH-017] | < 10 | < 10 | > 100 | 50 to 100 | < 10 | 
O=c1nc(-c2n[nH]c3ccc(-c4cncc(O)c4)cc23)[nH]c2ccccc12 [LH-018] | 50 to 100 | < 10 | 10 to 50 | < 10 | < 10 | 
CN1CCN(Cc2cncc(-c3ccc4[nH]nc(-c5nc(=O)c6ccccc6[nH]5)c4c3)c2)CC1 [LH-019] | < 10 | < 10 | > 100 | 50 to 100 | 10 to 50 | 
CC(C)C[C@H](N)COc1cncc(-c2ccc3[nH]nc(-c4nc(=O)c5ccccc5[nH]4)c3c2)c1 [LH-020] | < 10 | < 10 | 50 to 100 | 10 to 50 | < 10 | IC50 ([2]; read-out: IC50 for CLK2): 2 nM; selectivity index for CLK3 ([3]; CLK3 versus CLK2): 41.5; IC50 ([3]; read-out: IC50 for CLK3): 81 nM; IC50 ([5]; read-out: IC50 for DYRK1A): 3 nM; chondroprotective effect ([6]; ACLT model rats, 1.5 and 6 μg/kg into the joint cavity): significant chondroprotective effect; expression of ADAMTS5 in cartilage (RT-qPCR) [6, 11]: significantly down-regulate; expression of IHH in cartilage (RT-qPCR) [6, 11]: significantly down-regulate; expression of MMP3 in cartilage (RT-qPCR) [6, 11]: significantly down-regulate; expression of MMP13 in cartilage (RT-qPCR) [6, 11]: significantly down-regulate; expression of ADAMTS5 in cartilage (RT-qPCR) [6, 12]: significantly down-regulate; expression of IHH in cartilage (RT-qPCR) [6, 12]: significantly down-regulate; expression of MMP3 in cartilage (RT-qPCR) [6, 12]: significantly down-regulate; expression of MMP13 in cartilage (RT-qPCR) [6, 12]: significantly down-regulate
CC(C)C[C@H](N)COc1cncc(-c2ccc3[nH]nc(-c4nc(=O)c5ccncc5[nH]4)c3c2)c1 [LH-037] | < 10 | 10 to 50 | < 10 | 10 to 50 | < 10 | 
CC(C)CC(=O)Nc1cncc(-c2ccc3[nH]nc(-c4cccnc4)c3c2)c1 [LH-039] | 50 to 100 | 10 to 50 | < 10 | 50 to 100 | 10 to 50 | 
CC(C)CC(=O)Nc1cncc(-c2ccc3[nH]nc(-c4ccncc4)c3c2)c1 [LH-040] | 50 to 100 | < 10 | 10 to 50 | < 10 | < 10 | 
CC(C)CC(=O)Nc1cncc(-c2ccc3[nH]nc(-c4ccc5ocnc5c4)c3c2)c1 [LH-041] | 10 to 50 | < 10 | < 10 | 10 to 50 | 10 to 50 | 
CC(C)CC(=O)Nc1cncc(-c2ccc3[nH]nc(C4=NCc5ccccc5N4)c3c2)c1 [LH-048] | < 10 | < 10 | < 10 | 10 to 50 | < 10 | 
FC1(F)CCN(Cc2cncc(-c3ccc4[nH]nc(C5=NCc6ccccc6N5)c4c3)c2)C1 [LH-049] | 50 to 100 | < 10 | 10 to 50 | > 100 | < 10 | 
CC(C)CC(=O)Nc1cncc(-c2ccc3[nH]nc(-c4nc5c(-c6cccc(F)c6)cncc5[nH]4)c3c2)c1 [SM04690] |  |  |  |  |  | water solubility [7]: poor
